Patent US5534416A, “Fluorescent viability assay using cyclic-substituted unsymmetrical cyanine dyes” (Molecular Probes, Inc., priority 1993, dated 1996)

Tests used:
DNA = assay: Quantum yield of dye on DNA versus fluorescein; assay type: physicochemical; conditions: for QY (DNA): Table 2, Tris buffered saline pH 10, fluorescein assumed 0.92; for Normalized QY: QY divided by QY of thiazole orange; for QY: Table 7, on DNA, fluorescein reference
Excerpt: ^ Quantum yield (QY) of dye on DNA (standard solution in Tris buffere
saline adjusted to pH 10) in comparison with fluorescein, which is assume
to have a quantum yield of 0.92 under the test conditions.
(§1) Factors such as degree of fluorescence enhancement with nucleic acid binding, self quenching, molar extinction coefficient, membrane permeability, intracellular partitioning, nucleic acid binding affinity, and quantum yield contribute to the overall fluorescence of nucleic acid stains in cells. Enhanced cell fluorescence obtained with Dye I is related to unexpected properties other than quantum yield alone. Quantum yield is determined as described above (foot note to Table 2). Normalized quantum yield is determined to illustrate the fold-change in quantum yield of Dye I compared with thiazole orange, a related cell-permeant dye. The normalized fluorescence values represent the quantum yield of each dye divided by the quantum yield of thiazole orange. Fluorescence per cell is also scaled to thiazole orange values for both E. coli and S. aureus to allow direct comparison between relative (normalized) quantum yield and relative (normalized) fluorescence/cell.

nucleic acids [1] = assay: Excitation/emission maxima of dyes complexed with nucleic acids; assay type: physicochemical; parameters: key: wavelength in nm; conditions: Table 2; dye complexed with nucleic acids
Excerpt: Dye I is lightly colored and is virtually non-fluorescent when diluted in aqueous solution according to the method of the invention. Dye I is highly membrane-permeant and labels all cells, whether live or dead. When Dye I binds with intracellular nucleic acid polymers such as DNA and RNA, the resultant dye-nucleic acid complex becomes extremely fluorescent upon illumination. The quantum yield of the preferred Dye I/DNA complex is greater than 0.02, typically greater than 0.1, preferably greater than 0.2, and more preferably greater than 0.3. Typically, Dye I combines with intracellular nucleic acids to give a green or red fluorescence. When excited at a wavelength between about 300 nm and about 500 nm, the dyes complexed with nucleic acids have an emission maximum between about 500 and about 610 nm (see Table 2). Preferably, Dye I complexed with nucleic acids has an emission maximum of between about 500 nm and about 535 nm, resulting in a true green fluorescent signal in cells of the sample where Dye I is present alone.

[2] = test system: Peripheral blood lymphocytes; assay: Live/dead staining of peripheral blood lymphocytes, fluorescence microscopy; assay type: cell-based, goat; conditions: 1 μM dye 637, 1 μM calcein AM, 30 minutes each, either order
Method: Peripheral blood lymphocytes are isolated from whole goat blood using the standard ficoll density gradient protocol. The cells are incubated in saline buffer with coverslips coated with a cell adhesive. After attachment to the coverslip, the cells are incubated with either
a) 1 μM dye 637 for 30 minutes followed by washing, and subsequently incubating with 1 μM calcein AM for 30 minutes, or
b) as above but labeling first with calcein AM, and subsequently staining with dye 637.
After washing with saline, the stained cells are viewed through a long-pass fluorescein filter to view calcein fluorescence and a long-pass Texas Red® filter to view the emission of dye 637. A Nikon fluorescence microscope equipped with a 40× objective is used for inspection and photography.

nucleic acids [3] = conditions: cited from earlier work
M. luteus = assay: Fluorescence per cell, stained bacteria (microtiter plate reader); assay type: cell-based, Micrococcus luteus; conditions: optimal dye concentration, corrected for cell number
Method: (§2) 1. Measured in a fluorescence microtiter plate reader with extraction and
(§3) emission filters at 485+/-10 and 530+/-12, respectively. Fluorescence dat
(§4) are corrected for cell number; but are not corrected for cell volume or
(§5) 2. Optimal dye concentrations determined as in Example 3.
(§6) 3. Suspension concentrations as used for Example 3.
(§7) A culture of E. coli is washed by centrifugation and resuspended in water to its original volume. Using Corning 96-well microtiter plates with flat bottoms, 150 μL volumes of suspension are loaded per well. A single well of sterile water is the well background standard. Using a Dynatech MR600 microplate reader equipped with a 410 nm filter, absorbance is determined for the initial volumes of suspension. The suspension is diluted seven times by serial ten-fold dilutions in water, 150 μL of suspension per well, and the absorbance measured for each dilution. Following the absorbance measurements, each dilution loaded into wells is further diluted 1:10 and plated in duplicate on nutrient growth agar. The colonies are counted and expressed as colony forming units per milliliter (cfu/mL). Using the turbidity of the dilution in the microtiter plate, the suspension is diluted to a density of about 1×10^9 cfu/mL.
(§8) The bacteria suspension, adjusted to a known density as described above, is diluted seven times by serial ten-fold dilutions in water; 150 μL of suspension per well. Three-fold serial dilutions of dye are used (30-0.04 μM); 50 μL of dye at 4× final concentration. Using Corning 96-well microtiter flat-bottom plates, a matrix is set up whereby the cell concentration decreases across the plate and the dye concentration decreases down the plate, final volume per well is 200 μL. The top row and first column are reserved for the control, sterile water. The plate is incubated at 37° C. for 30 minutes, then read in a Millipore Cytofluor™ 2350 96-well fluorescence microplate reader at a fixed excitation of 485+/-10 nm and each of three emission wavelengths, 530+/-12, 620+/-20, or 645+/-20 nm. The results determine the best dye range (30-1 μM) and the best cell concentrations (concentrated through first three ten-fold dilutions) for optimal dye loading. […] Using the four dye dilutions and the four bacterial dilutions, many bacteria and dyes can be assayed quickly. The data collected allow the determination of optimal dye and cell concentration required for maximal fluorescence intensity per cell.

K. pneumonia = assay: as above; assay type: cell-based, Klebsiella pneumonia; conditions: optimal dye concentration, corrected for cell number
Method: as §2, §3, §4, §5, §6, §7, §8

S. pyogenes = assay: as above; assay type: cell-based, Streptococcus pyogenes; conditions: optimal dye concentration, corrected for cell number
Method: as §2, §3, §4, §5, §6, §7, §8

S. oranienburg = assay: as above; assay type: cell-based, Salmonella oranienburg; conditions: optimal dye concentration, corrected for cell number
Method: as §2, §3, §4, §5, §6, §7, §8

E. coli = assay: as above; assay type: cell-based, Escherichia coli; conditions: for Fluorescence/Cell (ex 485/em 530): E. coli, optimal dye concentration, corrected for cell number; for Normalized Fluorescence/cell (ex 485 nm/em 530 nm), Escherichia coli: scaled to thiazole orange
Excerpt: as §2, §3, §4, §5, §6, §1, §7, §8

P. aeruginosa = assay: as above; assay type: cell-based, Pseudomonas aeruginosa; conditions: optimal dye concentration, corrected for cell number
Method: as §2, §3, §4, §5, §6, §7, §8

S. aureus = assay: as above; assay type: cell-based, Staphylococcus aureus; conditions: for Fluorescence/Cell (ex 485/em 530): S. aureus, optimal dye concentration, corrected for cell number; for Normalized Fluorescence/cell (ex 485 nm/em 530 nm), Staphylococcus aureus: scaled to thiazole orange
Excerpt: as §2, §3, §4, §5, §6, §1, §7, §8

B. cereus = assay: as above; assay type: cell-based, Bacillus cereus; conditions: optimal dye concentration, corrected for cell number
Method: as §2, §3, §4, §5, §6, §7, §8

[4] = test system: NIH/3T3 mouse fibroblast cell line; assay: Live/dead staining of fibroblasts, fluorescence microscopy; assay type: cell-based
Method: NIH/3T3 mouse fibroblast cell line is obtained from American Type Culture Collection Co., Rockville, Md. The cells are maintained in a humidified atmosphere of 5% CO2 in Dulbecco's modified Eagle's medium (DMEM) supplemented with 10% calf serum, 50 μg/mL gentamicin, 300 μg/mL L-glutamine and 10 mM HEPES pH 7.4. Cells are subcultured every 3 days by trypsinization using 0.05% trypsin and 0.02% EDTA in a Ca- and Mg-free saline solution (Gibco BRL, Gaithersburg, Md.).
A 5 μM staining solution of the dye 61 is prepared by dilution of 25 μL of 2 mM stock solution into 10 mL DMEM. A 2 μM staining solution of ethidium homodimer-1 is prepared by dilution of 2 μL of 10 mM stock solution into 10 mL phosphate buffered saline (PBS).
The 3T3 cells are stained with the 5 μM solution of dye 61, and then incubated in the dark at room temperature for 30 minutes. The cells are then […] with the 2 μM ethidium homodimer-1 solution.
The 3T3 cells are then observed a long-pass fluorescein filter to view dye 61 fluorescence and a long-pass Texas Red® filter to view the emission of ethidium homodimer. A Nikon fluorescence microscope equipped with a 40× objective is used for inspection and photography.

S. sonnei = assay: Fluorescence per cell, stained bacteria (microtiter plate reader); assay type: cell-based, Shigella sonnei; conditions: optimal dye concentration, corrected for cell number
Method: as §2, §3, §4, §5, §6, §7, §8

intact cells = conditions: cited from earlier work
prokaryotic microbes = conditions: Kaneshiro et al. 1993; cited from earlier work
calf thymus DNA = conditions: Table 5; bound to excess calf thymus DNA (50 bp/dye); cited from earlier work

Row | Compound | QY (DNA) (DNA) | EM max (nucleic acids [1]) | EX max (nucleic acids [1]) | Normalized QY (DNA) | QY (DNA) | Fluorescence/Cell (ex 485/em 530) (M. luteus) | Fluorescence/Cell (ex 485/em 530) (K. pneumonia) | Fluorescence/Cell (ex 485/em 530) (S. pyogenes) | Fluorescence/Cell (ex 485/em 530) (S. oranienburg) | Fluorescence/Cell (ex 485/em 530) (E. coli) | Normalized Fluorescence/cell (ex 485 nm/em 530 nm), Escherichia coli (E. coli) | Fluorescence/Cell (ex 485/em 530) (P. aeruginosa) | Fluorescence/Cell (ex 485/em 530) (S. aureus) | Normalized Fluorescence/cell (ex 485 nm/em 530 nm), Staphylococcus aureus (S. aureus) | Fluorescence/Cell (ex 485/em 530) (B. cereus) | Fluorescence/Cell (ex 485/em 530) (S. sonnei) | further results
1 | CCCCC1=CC(=CC=Cc2oc3ccccc3[n+]2C)c2ccccc2N1c1ccccc1 [compound 637] | 0.28 | 622 | 601 | – | – | – | – | – | – | – | – | – | – | – | – | – | staining of dead cells [2]: stained only with dye 637 and do not exhibit green fluorescence
2 | N=C(N)c1ccc(-c2cc3ccc(C(=N)N)cc3[nH]2)cc1 [DAPI] | – | – | – | – | – | – | – | – | – | – | – | – | – | – | – | – | excitability of nucleic acid complex (nucleic acids [3]; background): only excitable with UV light; spectral overlap of DNA-bound dye with cellular autofluorescence (nucleic acids [3]; background): overlap significantly with cellular autofluorescence
3 | CN(C)c1ccc2cc3ccc(N(C)C)cc3nc2c1 [acridine orange] | – | – | – | – | – | – | – | – | – | – | – | – | – | – | – | – | fluorescence enhancement upon binding to nucleic acids (nucleic acids [3]; background): about two-fold; background signal (nucleic acids [3]): high background signal
4 | CCCCC1=CC(=Cc2sc3ccccc3[n+]2C)c2ccccc2N1c1ccccc1 [compound 61] | 0.46 | 527 | 500 | 2.5 | 0.46 | 49 | 10 | 0.01 | 10 | 10 | 5 | 5 | 15 | 4.7 | 196 | 6 | staining of live cells ([4]; 5 μM, 30 minutes, room temperature): live cells are stained fluorescent green
5 | Calcein AM | – | – | – | – | – | – | – | – | – | – | – | – | – | – | – | – | T1/2 (time for half of dye to leak from intact cells) (intact cells; 37° C., up to): up to 3 hour; Loading (intact cells; in words): Easily loaded; Retention (intact cells; in words): very good; pH sensitivity (intact cells; in words): not very; usefulness with prokaryotic microbes versus eukaryotic microbes (prokaryotic microbes): less useful with cells from prokaryotic microbes
6 | CCN(CC)C1=CC(=Cc2sc3ccccc3[n+]2C)c2ccccc2N1c1ccccc1 [compound 619] | 0.62 | 517 | 488 | 3.4 | 0.62 | 149 | 12 | 0.06 | 18 | 26 | 13 | 16 | 47 | 14.7 | 827 | 13 | –
7 | CCOc1ccc(-c2nc3ccc(-c4nc5ccc(N6CCN(C)CC6)cc5[nH]4)cc3[nH]2)cc1 [Hoechst 33342] | – | – | – | – | – | – | – | – | – | – | – | – | – | – | – | – | excitability of nucleic acid complex (nucleic acids [3]; background): only excitable with UV light; spectral overlap of DNA-bound dye with cellular autofluorescence (nucleic acids [3]; background): overlap significantly with cellular autofluorescence
8 | CN1C(=Cc2cc[n+](C)c3ccccc23)Sc2ccccc21 [Thiazole Orange, reference compound] | 0.18 | 530 | 510 | 1.0 | 0.18 | 21 | 3 | < 0.01 | 1 | 2 | 1 | 2 | 3.2 | 1.0 | 51 | 1 | EM max (calf thymus DNA): 525 nm; EX max (calf thymus DNA): 509 nm
9 | Nc1ccc2c(c1)c(-c1ccccc1)[n+](CCCNCCNCCC[n+]1c(-c3ccccc3)c3cc(N)ccc3c3ccc(N)cc31)c1cc(N)ccc21 [Ethidium homodimer-1] | – | – | – | – | – | – | – | – | – | – | – | – | – | – | – | – | EM max (calf thymus DNA): 617 nm; EX max (calf thymus DNA): 528 nm; staining of dead cells ([4]; 2 μM): dead cells are stained fluorescent red
10 | Nc1ccc2c(c1)c(-c1ccccc1)[n+](CCCNCCNCCC[n+]1c(-c3ccccc3)c3cc(N)ccc3c3ccc(N)cc31)c1cc(N)ccc21 [ethidium homodimer] | – | – | – | – | – | – | – | – | – | – | – | – | – | – | – | – | usefulness with prokaryotic microbes versus eukaryotic microbes (prokaryotic microbes): less useful with cells from prokaryotic microbes
